Measurements: PubChem BioAssay AID1259407 (Chemical Carcinogenesis Research Information System (CCRIS), 2018)
Active and inactive are the calls of the source. No rule for the calls is given here.

System: CCRIS mutagenicity, Ames/micronucleus/aberration tests
Test: CCRIS mutagenicity studies
[1] = Test System: AMES SALMONELLA TYPHIMURIUM, Strain/Indicator: TA97, Metabolic Activation: HAMSTER, LIVER, S-9, AROCLOR 1254 (10 OR 30%), Method: PREINCUBATION
[2] = Test System: AMES SALMONELLA TYPHIMURIUM, Strain/Indicator: TA97, Metabolic Activation: NONE, Method: PREINCUBATION
[3] = Test System: AMES SALMONELLA TYPHIMURIUM, Strain/Indicator: TA97, Metabolic Activation: RAT, LIVER, S-9, AROCLOR 1254 (10 OR 30%), Method: PREINCUBATION
[4] = Test System: AMES SALMONELLA TYPHIMURIUM, Strain/Indicator: TA98, Metabolic Activation: HAMSTER, LIVER, S-9, AROCLOR 1254 (10 OR 30%), Method: PREINCUBATION
[5] = Test System: AMES SALMONELLA TYPHIMURIUM, Strain/Indicator: TA98, Metabolic Activation: NONE, Method: PREINCUBATION
[6] = Test System: AMES SALMONELLA TYPHIMURIUM, Strain/Indicator: TA98, Metabolic Activation: RAT, LIVER, S-9, AROCLOR 1254 (10 OR 30%), Method: PREINCUBATION
[7] = Test System: AMES SALMONELLA TYPHIMURIUM, Strain/Indicator: TA100, Metabolic Activation: HAMSTER, LIVER, S-9, AROCLOR 1254 (10 OR 30%), Method: PREINCUBATION
[8] = Test System: AMES SALMONELLA TYPHIMURIUM, Strain/Indicator: TA100, Metabolic Activation: NONE, Method: PREINCUBATION
[9] = Test System: AMES SALMONELLA TYPHIMURIUM, Strain/Indicator: TA100, Metabolic Activation: RAT, LIVER, S-9, AROCLOR 1254 (10 OR 30%), Method: PREINCUBATION
[10] = Test System: AMES SALMONELLA TYPHIMURIUM, Strain/Indicator: TA1535, Metabolic Activation: HAMSTER, LIVER, S-9, AROCLOR 1254 (10 OR 30%), Method: PREINCUBATION
[11] = Test System: AMES SALMONELLA TYPHIMURIUM, Strain/Indicator: TA1535, Metabolic Activation: NONE, Method: PREINCUBATION
[12] = Test System: AMES SALMONELLA TYPHIMURIUM, Strain/Indicator: TA1535, Metabolic Activation: RAT, LIVER, S-9, AROCLOR 1254 (10 OR 30%), Method: PREINCUBATION

Row | Structure (SMILES) | mutagenic call [1] | mutagenic call [2] | mutagenic call [3] | mutagenic call [4] | mutagenic call [5] | mutagenic call [6] | mutagenic call [7] | mutagenic call [8] | mutagenic call [9] | mutagenic call [10] | mutagenic call [11] | mutagenic call [12] | further results
1 | C[N+](C)(C)Cc1ccccc1 | inactive; negative | inactive; negative | inactive; negative | inactive; negative | inactive; negative | inactive; negative | inactive; negative | inactive; negative | inactive; negative | inactive; negative | inactive; negative | inactive; negative | –
2 | CN(CCCC(O)c1cccnc1)N=O (stereo not given) | – | – | – | – | – | – | – | – | – | – | – | – | mutagenic call (Test System: AMES SALMONELLA TYPHIMURIUM, Strain/Indicator: TA1535, Metabolic Activation: HAMSTER LIVER S-9, AROCLOR 1254 (5% OR 10%), Method: MICROSUPENSION): active; positive; mutagenic call (Test System: AMES SALMONELLA TYPHIMURIUM, Strain/Indicator: TA1535, Metabolic Activation: RAT LIVER S-9, AROCLOR 1254 (5% OR 10%), Method: MICROSUSPENSION): active; positive
3 | Cc1c(N)nc(C)c2c1[nH]c1ccccc12 | – | – | – | – | – | – | – | – | – | – | – | – | mutagenic call (Test System: AMES SALMONELLA TYPHIMURIUM, Strain/Indicator: TA98, Metabolic Activation: HUMAN, BLOOD, CYTOSOL, Method: PREINCUBATION): active; positive; mutagenic call (Test System: AMES SALMONELLA TYPHIMURIUM, Strain/Indicator: TA98, Metabolic Activation: MONKEY, LIVER, S-9, Method: PREINCUBATION): active; positive; mutagenic call (Test System: AMES SALMONELLA TYPHIMURIUM, Strain/Indicator: TA98, Metabolic Activation: MOUSE, LIVER, MICROSOMES, TCDD, Method: STANDARD PLATE): active; positive; mutagenic call (Test System: AMES SALMONELLA TYPHIMURIUM, Strain/Indicator: TA98, Metabolic Activation: MOUSE, LIVER, MICROSOMES, Method: STANDARD PLATE): active; positive; mutagenic call (Test System: AMES SALMONELLA TYPHIMURIUM, Strain/Indicator: TA98, Metabolic Activation: RAT, BLADDER, S-9, PCB, Method: FLUCTUATION TEST): active; positive; mutagenic call (Test System: AMES SALMONELLA TYPHIMURIUM, Strain/Indicator: TA98, Metabolic Activation: RAT, HEPATOCYTES, AROCLOR 1254, Method: PREINCUBATION): active; positive; mutagenic call (Test System: AMES SALMONELLA TYPHIMURIUM, Strain/Indicator: TA98, Metabolic Activation: RAT, LIVER, S-9, AROCLOR 1254, Method: PREINCUBATION): active; positive; mutagenic call (Test System: AMES SALMONELLA TYPHIMURIUM, Strain/Indicator: TA100, Metabolic Activation: RAT, BLADDER, S-9, PCB, Method: FLUCTUATION TEST): active; positive; mutagenic call (Test System: AMES SALMONELLA TYPHIMURIUM, Strain/Indicator: TA100, Metabolic Activation: RAT, LIVER, S-9, AROCLOR 1254, Method: PREINCUBATION): inactive; negative; mutagenic call (Test System: AMES SALMONELLA TYPHIMURIUM, Strain/Indicator: YG1019, Metabolic Activation: RAT LIVER S-9, AROCLOR, Method: PREINCUBATION): active; positive; mutagenic call (Test System: CHINESE HAMSTER V-79, Strain/Indicator: V-79/8-AZAGUANINE, Metabolic Activation: NONE, Method: SUSPENSION/PLATE): active; positive; mutagenic call (Test System: CHINESE HAMSTER V-79, Strain/Indicator: V-79/8-AZAGUANINE, Metabolic Activation: S-9, Method: SUSPENSION/PLATE): active; positive; mutagenic call (Test System: CHINESE HAMSTER V-79, Strain/Indicator: V-79/OUABAIN, Metabolic Activation: NONE, Method: SUSPENSION/PLATE): inactive; negative; mutagenic call (Test System: CHINESE HAMSTER V-79, Strain/Indicator: V-79/OUABAIN, Metabolic Activation: S-9, Method: SUSPENSION/PLATE): inactive; negative; mutagenic call (Test System: UDS HAMSTER HEPATOCYTES, Strain/Indicator: THY INCORP, Metabolic Activation: NONE, Method: LIQUID SCINTILLATION COUNTING): active; positive; mutagenic call (Test System: UDS HUMAN HEPATOCYTES, Strain/Indicator: THY INCORP, Metabolic Activation: NONE, Method: AUTORADIOGRAPHY): active; positive; mutagenic call (Test System: UDS MOUSE HEPATOCYTES, Strain/Indicator: THY INCORP, Metabolic Activation: NONE, Method: AUTORADIOGRAPHY): active; positive; mutagenic call (Test System: UDS RAT HEPATOCYTES, Strain/Indicator: THY INCORP, Metabolic Activation: NONE, Method: AUTORADIOGRAPHY): inactive; negative; mutagenic call (Test System: UDS RAT HEPATOCYTES, Strain/Indicator: THY INCORP, Metabolic Activation: NONE, Method: LIQUID SCINTILLATION COUNTING): inactive; negative
4 | CN(C)C(=O)Nc1cccc(C(F)(F)F)c1 | inactive; negative | inactive; negative | inactive; negative | inactive; negative | inactive; negative | inactive; negative | inactive; negative | inactive; negative | inactive; negative | inactive; negative | inactive; negative | inactive; negative | mutagenic call (End Point: IN VITRO CHROMOSOMAL ABERRATIONS, Test System: CHO-LB CELLS, Metabolic Activation: NONE): inactive; negative; mutagenic call (End Point: IN VITRO CHROMOSOMAL ABERRATIONS, Test System: CHO-LB CELLS, Metabolic Activation: RAT, LIVER, S-9, AROCLOR 1254): inactive; negative; mutagenic call (Test System: AMES SALMONELLA TYPHIMURIUM, Strain/Indicator: TA1535, Metabolic Activation: RAT, LIVER, S-9, Method: STANDARD PLATE): active; positive; mutagenic call (Test System: E. COLI, Strain/Indicator: WP2 UVRA, Metabolic Activation: HAMSTER, LIVER, S-9, AROCLOR 1254, Method: STANDARD PLATE): inactive; negative; mutagenic call (Test System: E. COLI, Strain/Indicator: WP2 UVRA, Metabolic Activation: HAMSTER, LIVER, S-9, Method: STANDARD PLATE): inactive; negative; mutagenic call (Test System: E. COLI, Strain/Indicator: WP2 UVRA, Metabolic Activation: MOUSE, LIVER, S-9, AROCLOR 1254, Method: STANDARD PLATE): inactive; negative; mutagenic call (Test System: E. COLI, Strain/Indicator: WP2 UVRA, Metabolic Activation: MOUSE, LIVER, S-9, Method: STANDARD PLATE): inactive; negative; mutagenic call (Test System: E. COLI, Strain/Indicator: WP2 UVRA, Metabolic Activation: NONE, Method: STANDARD PLATE): inactive; negative; mutagenic call (Test System: E. COLI, Strain/Indicator: WP2 UVRA, Metabolic Activation: RAT, LIVER, S-9, AROCLOR 1254, Method: STANDARD PLATE): inactive; negative; mutagenic call (Test System: E. COLI, Strain/Indicator: WP2 UVRA, Metabolic Activation: RAT, LIVER, S-9, Method: STANDARD PLATE): inactive; negative
5 | NC(=O)NNC(N)=O | inactive; negative | inactive; negative | inactive; negative | inactive; negative | inactive; negative | inactive; negative | inactive; negative | inactive; negative | inactive; negative | inactive; negative | inactive; negative | inactive; negative | mutagenic call (Test System: AMES SALMONELLA TYPHIMURIUM, Strain/Indicator: TA1537, Metabolic Activation: HAMSTER, LIVER, S-9, AROCLOR 1254 (10 OR 30%), Method: PREINCUBATION): inactive; negative; mutagenic call (Test System: AMES SALMONELLA TYPHIMURIUM, Strain/Indicator: TA1537, Metabolic Activation: NONE, Method: PREINCUBATION): inactive; negative; mutagenic call (Test System: AMES SALMONELLA TYPHIMURIUM, Strain/Indicator: TA1537, Metabolic Activation: RAT, LIVER, S-9, AROCLOR 1254 (10 OR 30%), Method: PREINCUBATION): inactive; negative
